Where no end group is shown, it is not given here.

Assay [1] relates to primary human polymorphonuclear neutrophil (PMN). Briefly: PMN chemotaxis (transwell, modified Boyden chamber). The conditions noted are these: for Relative Migration (PMN migration): relative to 10 nM fMLF (Table 4a). The assay is classed as cell-based. As for the experimental part: Chemotaxis is measured by observing primary human polymorphonuclear neutrophil (PMN) migration across transwell membranes (Corning #3415) towards antibody conjugates in a modified Boyden chamber assay. Approximately 2-4×10^5 cells from neutrophil-enriched preparations are seeded in upper transwell chambers on membranes with 3.0 um pores. The lower transwell chambers contain solutions of buffer alone and fMLF (N-formyl-Met-Leu-Phe peptide as positive control) and experimental antibody bioconjugates. […] Cell numbers are determined using standard curves. All data are transformed to percent relative to the maximal fMLF response for each individual experiment.

In assay [2] the test system is human primary PMNs. Briefly: PMN reactive oxygen species (ROS) production, luminol-amplified chemiluminescence. The conditions noted are these: for PMN ROS production: relative to 1000 nM fMLF; for ROS Production by PMNs: relative to 10 uM fMLF, AUC 5 minutes (Table 8a). The assay is classed as cell-based.
Method: Production of ROS by human primary PMNs is measured using luminol-amplified chemiluminescence. Following isolation, PMNs are suspended at 1×10^6 cells/ml in HBSS containing calcium and magnesium (Gibco #14025-092) supplemented with 0.25% human serum albumin (Gemini Bio producst #800-124) and 50 uM Luminol (SigmaAldrich #123072-2.5G). 100 μl of cell suspension (1×10^5 total cells) is then distributed into each well of a 96-well plate suitable for fluorescence measurement (Greiner #655098) and temperature equilibrated to 37° C. for 5 minutes. Following equilibration, 10× solution of antibody conjugate is applied to the wells, achieving a 1× final concentration.
Immediately after the addition of antibody conjugate, chemiluminescence signal is recorded in a luminometer maintained at 37° C. with 0.01 seconds dwell time per well, 20 seconds total time between sequential plate readings and 45 minutes total run time (PerkinElmer EnVision Multilabel Plate Reader).
In assay [3] the target is formyl peptide receptor 1 (FPR1) on primary human polymorphonuclear neutrophils (human) (UniProt P21462). The experiment in a line: cell-based or functional assay.
For assay [4] the target is unchanged. Briefly: cell-based or functional assay. This is another data set of the same source.

Consider “Emibetuzumab-G4(PAA)-UC-HC-124C-378C: unconjugated emibetuzumab IgG4(PAA) with HC 124C and 378C; HC SEQ ID NO:3, LC SEQ ID NO:5”, for which the “Relative Migration (PMN migration towards antibody conjugates)” value in assay [1] (0.78 nM, relative to 3.12 nM fMLF (Table 6)) is reported as 5.48%; in assay [1] (1 nM, relative to 30 nM fMLF (Table 7)) it was 11.30%; in assay [1] (1.56 nM, relative to 3.12 nM fMLF (Table 6)), 8.05%; in assay [1] (3 nM, relative to 30 nM fMLF (Table 7)) it was 12.40%; in assay [1] (3.12 nM, relative to 3.12 nM fMLF (Table 6)), 7.24%; in assay [1] (6.25 nM, relative to 3.12 nM fMLF (Table 6)), 6.36%. Further, the “Relative Migration (PMN migration towards antibody conjugates)” value in assay [1] (10 nM, relative to 30 nM fMLF (Table 7)) was determined as 12.27%; in assay [1] (12.5 nM, relative to 3.12 nM fMLF (Table 6)) it was 4.11%; in assay [1] (25 nM, relative to 3.12 nM fMLF (Table 6)), 5.70%; in assay [1] (30 nM, relative to 30 nM fMLF (Table 7)), 14.66%; in assay [1] (50 nM, relative to 3.12 nM fMLF (Table 6)), 12.02%; in assay [1] (100 nM, relative to 3.12 nM fMLF (Table 6)), 6.67%. Moreover, the “Relative Migration (PMN migration towards antibody conjugates)” value in assay [1] (100 nM, relative to 30 nM fMLF (Table 7)) is recorded as 14.89%; in assay [1] (300 nM, relative to 30 nM fMLF (Table 7)) it was 17.95%. For the same substance, the “PMN migration (in words)” value in assay [1] (relative to conjugated antibodies) is reported as “did not induce PMN migration”. The “PMN ROS production” value was determined as 25.1 percentage in assay [2] (1 nM, AUC 5 minutes (Table 10)); 0.5 percentage in assay [2] (1 nM, AUC 5 minutes (Table 17)); 25.5 percentage in assay [2] (2 nM, AUC 5 minutes (Table 10)); 0.6 percentage in assay [2] (3 nM, AUC 5 minutes (Table 17)); 25 percentage in assay [2] (3.9 nM, AUC 5 minutes (Table 10)); 25.6 percentage in assay [2] (7.8 nM, AUC 5 minutes (Table 10)). The “PMN ROS production” value in assay [2] (12 nM, AUC 5 minutes (Table 17)) came out at 0.5 percentage; in assay [2] (15.6 nM, AUC 5 minutes (Table 10)), 24.9 percentage; in assay [2] (30 nM, AUC 5 minutes (Table 17)) it was 0.6 percentage; in assay [2] (31.3 nM, AUC 5 minutes (Table 10)), 25.3 percentage; in assay [2] (62.5 nM, AUC 5 minutes (Table 10)), 24.5 percentage; in assay [2] (100 nM, AUC 5 minutes (Table 17)) it was 0.5 percentage. For the same substance, the “PMN ROS production” value is 24.6 percentage in assay [2] (125 nM, AUC 5 minutes (Table 10)); 24.9 percentage in assay [2] (250 nM, AUC 5 minutes (Table 10)); 0.7 percentage in assay [2] (300 nM, AUC 5 minutes (Table 17)); 23 percentage in assay [2] (500 nM, AUC 5 minutes (Table 10)); 32.2 percentage in assay [2] (1000 nM, AUC 5 minutes (Table 10)); 0.5 percentage in assay [2] (1000 nM, AUC 5 minutes (Table 17)).

Turning to “H-Met-Leu-Phe-Lys (Mal-PEG12-OH (H-MLFK; not fully specified (residue 4)) [Peptide-'844]”, in assay [1], the “concentration at which PMN migration is maximally induced” value was found to be 1 µM. Moreover, the “Relative Migration (PMN migration)” value is given as 1.4% in assay [1] (1 pM); 4.1% in assay [1] (10 pM); 0.4% in assay [1] (100 pM); 11.1% in assay [1] (1 nM); 2.9% in assay [1] (10 nM); 20.4% in assay [1] (100 nM). For the same substance, the “Relative Migration (PMN migration)” value in assay [1] (1 uM) is reported as 114.2%; in assay [1] (10 uM), 110.4%. Further, the “fold less potent at inducing PMN migration than Peptide-'183” value in assay [1] (dose response differences) amounted to 1000 fold. In addition, the “ROS Production by PMNs” value in assay [2] (1 pM) worked out at 7.4 percentage; in assay [2] (10 pM), 7.5 percentage; in assay [2] (100 pM), 7.5 percentage; in assay [2] (1 nM), 8.4 percentage; in assay [2] (10 nM), 7.8 percentage; in assay [2] (100 nM), 8.2 percentage. Further, the figures for the “ROS Production by PMNs” value in assay [2] (1 μM) and in assay [2] (10 μM) were 8.7 percentage and 23.5 percentage, respectively.

Turning to “Emibetuzumab-G4-fMLFK-HC-124C-157C-378C (antibody)”, in assay [3], the PMN ROS production at 1 nM (percent relative to 1000 nM fMLF) came to 1.7%, the PMN ROS production at 3 nM (percent relative to 1000 nM fMLF) turned out to be 11.9%, the PMN ROS production at 12 nM (percent relative to 1000 nM fMLF) was 26.9% and the PMN ROS production at 30 nM (percent relative to 1000 nM fMLF) was determined as 50%. In addition, in assay [3], the PMN ROS production at 100 nM (percent relative to 1000 nM fMLF) stood at 63.6%, the PMN ROS production at 300 nM (percent relative to 1000 nM fMLF) turned out to be 58.7% and the PMN ROS production at 1000 nM (percent relative to 1000 nM fMLF) amounted to 51.8%.

“Tmab-G1-fMIFL-HC124C-378C-(PEG3) (antibody)” had an EC50 of PMN ROS production in assay [4] of 31.3 nM.

In the case of “Tmab-G1-fMIFL-HC124C-378C-(PEG12) (antibody)”, the EC50 of PMN ROS production in assay [4] worked out at 36.4 nM.

For the substance “Tmab-G1-fMIFL-HC124C-378C-(PEG6) (antibody)”, in assay [4], the EC50 of PMN ROS production came to 13.6 nM.

Regarding “Emibetuzumab-G4(PAA)-fMLFK-HC-124C-162C-378C (antibody)”, in assay [3], the PMN ROS production at 1 nM (percent relative to 1000 nM fMLF) stood at 1.2%, the PMN ROS production at 3 nM (percent relative to 1000 nM fMLF) was found to be 6.1%, the PMN ROS production at 12 nM (percent relative to 1000 nM fMLF) came out at 17.8% and the PMN ROS production at 30 nM (percent relative to 1000 nM fMLF) is 38.4%. In assay [3], this substance showed a PMN ROS production at 100 nM (percent relative to 1000 nM fMLF) of 52.7%, a PMN ROS production at 300 nM (percent relative to 1000 nM fMLF) of 54.2% and a PMN ROS production at 1000 nM (percent relative to 1000 nM fMLF) of 42.3%.

In assay [4], “Peptide-'183, formyl-Met-Leu-Phe-Lys(Mal-PEG12)-OH with hydrolyzed maleimido group (unconjugated peptide)” displayed an EC50 of PMN ROS production of 103 nM, a PMN ROS production at 1 pM (percent relative to 10 uM fMLF) of 6.9%, a PMN ROS production at 10 pM (percent relative to 10 uM fMLF) of 7.4% and a PMN ROS production at 100 pM (percent relative to 10 uM fMLF) of 7.5%. In assay [4], the PMN ROS production at 1 nM (percent relative to 10 uM fMLF) stood at 8.8%, the PMN ROS production at 10 nM (percent relative to 3000 nM fMLF) amounted to 3.6%, the PMN ROS production at 10 nM (percent relative to 10 uM fMLF) is 31.3% and the PMN ROS production at 30 nM (percent relative to 3000 nM fMLF) was 12.2%. In assay [4], the PMN ROS production at 100 nM (percent relative to 3000 nM fMLF) came out at 49.9%, the PMN ROS production at 100 nM (percent relative to 10 uM fMLF) is 76.6%, the PMN ROS production at 300 nM (percent relative to 3000 nM fMLF) amounted to 76.2% and the PMN ROS production at 1 µM (percent relative to 10 uM fMLF) was 94%. Also, in assay [4], the PMN ROS production at 1000 nM (percent relative to 3000 nM fMLF) came to 94.3%, the PMN ROS production at 3000 nM (percent relative to 3000 nM fMLF) worked out at 99.5%, the PMN ROS production at 10 µM (percent relative to 10 uM fMLF) stood at 107% and the PMN ROS production at 10000 nM (percent relative to 3000 nM fMLF) was determined as 89.1%. Besides, in assay [4], the PMN migration at 1 nM (percent relative to 100 nM fMLF) turned out to be 150%, the PMN migration at 3 nM (percent relative to 100 nM fMLF) is 167%, the PMN migration at 10 nM (percent relative to 100 nM fMLF) stood at 145% and the PMN migration at 30 nM (percent relative to 100 nM fMLF) was 118%. In assay [4], the PMN migration at 100 nM (percent relative to 100 nM fMLF) stood at 84.2%, the PMN migration at 300 nM (percent relative to 100 nM fMLF) came out at 50.4% and the PMN migration at 1000 nM (percent relative to 100 nM fMLF) amounted to 33.6%.

Source of the values: US20240398973A1, “ENGINEERED ANTIBODY COMPOUNDS AND CONJUGATES THEREOF” (Eli Lilly and Company, priority 2017, published 2024).
